Our source for the EC50 and solubility values is ChEMBL document CHEMBL3779828, “Discovery of the Aryl-phospho-indole IDX899, a Highly Potent Anti-HIV Non-nucleoside Reverse Transcriptase Inhibitor” (J Med Chem, 2016).

What is called EC50 is the concentration needed to bring the measured effect to its halfway point. What is called solubility is how much of the substance goes into solution per volume. Read a low solubility as little dissolved substance.

Data set [1] is described as follows: Antiviral activity against HIV1 BH10 harboring wild type reverse transcriptase infected in primary MT4 cells assessed as inhibition of virus-induced cytopathogenicity after 4 days by MTS assay. The data set is classed as functional, cell-based, Human immunodeficiency virus type 1 BH10. Particulars: Human immunodeficiency virus 1, MT4, 96 h. (Cytopathic effects are the visible damage that an infection or toxin causes in cultured cells.)

The subject of data set [2] is Human immunodeficiency virus 1. Briefly: Antiviral activity against HIV1 harboring reverse transcriptase Y181C mutant infected in primary MT4 cells assessed as inhibition of virus-induced cytopathogenicity after 4 days by MTS assay. Particulars: Human immunodeficiency virus 1, MT4, 96 h. It counts as functional, organism-based.
In data set [3] the test system is Human immunodeficiency virus 1. The data set can be described thus: Antiviral activity against HIV1 harboring reverse transcriptase K103N mutant infected in primary MT4 cells assessed as inhibition of virus-induced cytopathogenicity after 4 days by MTS assay. The data set is classed as functional, organism-based. Particulars: Human immunodeficiency virus 1, MT4, 96 h.

Data set [4] deals with Human immunodeficiency virus 1. Briefly: Antiviral activity against HIV1 harboring reverse transcriptase Y181C/K103N double mutant infected in primary MT4 cells assessed as inhibition of virus-induced cytopathogenicity after 4 days by MTS assay. Particulars: Human immunodeficiency virus 1, MT4, 96 h. The data set is classed as functional, organism-based.
Data set [5] in a line: Aqueous solubility of the compound at pH 7. It counts as physicochemical. Particulars: aqueous medium.

In the case of `O=C1Nc2ccc(Cl)cc2[C@@](C#CC2CC2)(C(F)(F)F)O1` [EFAVIRENZ], the EC50 in data set [1] is 0.7 nM; in data set [2], 1.8 nM; in data set [3], 37 nM; in data set [4], 58 nM. In addition, the solubility in data set [5] is less than 0.5 µM.
As to `COP(=O)(c1cc(C)cc(CCC#N)c1)c1c(C(N)=O)[nH]c2ccc(Cl)cc12` (stereo not given), the EC50 in data set [1] is 0.7 nM; in data set [2], 0.7 nM; in data set [3], 3.5 nM; in data set [4], 28.5 nM.
`COP(=O)(c1cccc(-n2cccn2)c1)c1c(C(N)=O)[nH]c2ccc(Cl)cc12` (stereo not given): the EC50 in data set [1] was 4.5 nM; in data set [2], 59 nM; in data set [3], 102 nM; in data set [4], greater than 1000 nM.
As for `COP(=O)(c1cc(Cl)cc(Cl)c1)c1c(C(N)=O)[nH]c2ccc(Cl)cc12` (stereo not given), the EC50 is 0.3 nM in data set [1], 1.7 nM in data set [2], 19.9 nM in data set [3] and 248 nM in data set [4].
As to `COP(=O)(c1cc(C)cc(C#N)c1)c1c(C(N)=O)[nH]c2ccc(Cl)cc12` (stereo not given), the EC50 in data set [1] was 1 nM; in data set [2] it was 3.8 nM; in data set [3], 18.4 nM; in data set [4] it was 162 nM.
The like results for `COP(=O)(c1cncc(/C=C/C#N)c1)c1c(C(N)=O)[nH]c2ccc(Cl)cc12` (stereo not given) were, in that order, 1 nM, 2.5 nM, 9.5 nM and 192 nM.
Consider `COP(=O)(c1cc(C)cc(/C=C/C#N)c1)c1c(C(N)=O)[nH]c2ccc(Cl)cc12` (single isomer, unassigned; form 2), for which the 50% effective concentration (EC50) in data set [1] was 190 nM; in data set [2] it was 377 nM; in data set [3], 824 nM; in data set [4] it was greater than 1250 nM.
For `COP(=O)(c1ccc(C)c(C)c1)c1c(C(N)=O)[nH]c2ccc(Cl)cc12` (stereo not given), in that order: 0.2 nM, 22.9 nM, 35 nM and 792 nM.
Turning to `COP(=O)(c1cc(C)cc(Cl)c1)c1c(C(N)=O)[nH]c2ccc(Cl)cc12` (stereo not given), the EC50 worked out at 1.1 nM in data set [1], 5.6 nM in data set [2], 18.8 nM in data set [3] and 114 nM in data set [4].
For `COP(=O)(c1c(C(N)=O)[nH]c2ccc(Cl)cc12)C1CCCCC1` (stereo not given), the EC50 was 2.5 nM in data set [1], 219 nM in data set [2], 101 nM in data set [3] and greater than 1000 nM in data set [4].
With `COc1cc(C)cc(P(=O)(OC)c2c(C(N)=O)[nH]c3ccc(Cl)cc23)c1` (stereo not given), the EC50 in data set [1] worked out at 0.4 nM; in data set [2], 9 nM; in data set [3] it was 23 nM; in data set [4], 663 nM.
